Experimental data from patent US8062995B2, “Dioxazine-substituted arylamides” (Bayer CropScience AG, priority 2005, dated 2011).
One block for each compound: values may come before it.

What was measured:
[1] = test system: larvae of the mustard beetle (Phaedon cochleariae); assay: Phaedon test (sprayed Chinese cabbage discs); assay type: in vivo; conditions: for Kill rate after 7d in %: 100 g/ha
Protocol: (§1) Phaedon Test Solvents: 78 parts by weight of acetone • • 1.5 parts by weight of dimethylformamide Emulsifier: 0.5 part by weight of alkylaryl polyglycol ether To produce a suitable preparation of active compound, 1 part by weight of active compound is mixed with the stated amounts of solvents and emulsifier and the concentrate is diluted with emulsifier-containing water to the desired concentration. Discs of Chinese cabbage (Brassica pekinensis) are sprayed with an active compound preparation of the desired concentration and, after drying, populated with larvae of the mustard beetle (Phaedon cochleariae). After the desired period of time, the activity in % is determined. 100% means that all beetle larvae have been killed; 0% means that none of the beetle larvae have been killed.

[2] = logP determination by HPLC (reversed-phase C18), EEC Directive 79/831 Annex V.A8; assay type: physicochemical; conditions: HPLC reversed-phase C18, 43° C., acidic range pH 2.7
Protocol: The logP values given in the tables and Preparation Examples above are determined in accordance with EEC Directive 79/831 Annex V.A8 by HPLC (High Performance Liquid Chromatography) on a reversed-phase column (C 18). Temperature: 43° C. The determination by LC-MS in the acidic range is carried out at pH 2.7 using 0.1% aqueous formic acid and acetonitrile (contains 0.1% formic acid) as mobile phases; linear gradient from 10% acetonitrile to 95% acetonitrile. Calibration is carried out using unbranched alkan-2-ones (having 3 to 16 carbon atoms) with known logP values (determination of the logP values by the retention times using linear interpolation between two successive alkanones).

[3] = test system: green peach aphid (Myzus persicae); assay: Myzus test (MYZUPE spray treatment); assay type: in vivo; conditions: for Kill rate after 5d in %: 100 g/ha, spray treatment
Protocol: as §1, with “Myzus” for “Phaedon”, “Test (MYZUPE Spray Treatment)” for “Test”, “pekinensis), which are infested by all stages of the green peach aphid (Myzus persicae)” for “pekinensis)”, “concentration.” for “concentration and, after drying, populated with larvae of the mustard beetle (Phaedon cochleariae).”, “aphids” for “beetle larvae”

[4] = test system: caterpillars of the army worm (Spodoptera frugiperda); assay: Spodoptera frugiperda test (SPODFR spray treatment); assay type: in vivo; conditions: for Kill rate after 7d in %: 100 g/ha, spray treatment
Protocol: Spodoptera frugiperda Test (SPODFR Spray Treatment) Solvents: 78 parts by weight of acetone • • 1.5 parts by weight of dimethylformamide Emulsifier: 0.5 part by weight of alkylaryl polyglycol ether To produce a suitable preparation of active compound, 1 part by weight of active compound is mixed with the stated amounts of solvents and emulsifier and the concentrate is diluted with emulsifier-containing water to the desired concentration. Discs of maize leaves (Zea mays) are sprayed with an active compound preparation of the desired concentration and after drying populated with caterpillars of the army worm (Spodoptera frugiperda). After the desired period of time, the activity in % is determined. 100% means that all of the caterpillars have been killed; 0% means that none of the caterpillars have been killed.

[5] = test system: Spodoptera frugiperda larvae; assay: Spodoptera frugiperda test (treatment by watering); assay type: in vivo; conditions: for Kill rate after 14d in %: 20 ppm, treatment by watering
Protocol: Spodoptera frugiperda Test Solvent: 7 parts by weight of dimethylformamide Emulsifier: 2 parts by weight of alkylaryl polyglycol ether To produce a suitable preparation of active compound, 1 part by weight of active compound is mixed with the stated amounts of solvent and emulsifier and the concentrate is diluted with water to the desired concentration. Maize plants (Zea mays) are watered with an active compound preparation of the desired concentration and infected with Spodoptera frugiperda larvae. After the desired period of time, the kill in % is determined. 100% means that all larvae have been killed; 0% means that none of the larvae have been killed.

[6] = test system: Spodoptera exigua, resistant strain; assay: Spodoptera exigua test; resistant strain; assay type: in vivo; conditions: for Kill rate after 7d in %: 20 ppm, resistant strain
Protocol: Spodoptera exigua Test; Resistant Strain
Solvent: 7 parts by weight of dimethylformamide
Emulsifier: 2 parts by weight of alkylaryl polyglycol ether
To produce a suitable preparation of active compound, 1 part by weight of active compound is mixed with the stated amounts of solvent and emulsifier and the concentrate is diluted with emulsifier-containing water to the desired concentration.
Cabbage leaves (Brassica oleracea) are treated by being dipped into the active compound preparation of the desired concentration and populated with caterpillars of the army worm (Spodoptera exigua, resistant strain) while the leaves are still moist.
After the desired period of time, the kill in % is determined. 100% means that all caterpillars have been killed; 0% means that none of the caterpillars have been killed.

[7] = test system: caterpillars of the diamondback moth (Plutella xylostella); assay: Plutella test (leaf dip); assay type: in vivo
Protocol: (§2) Plutella Test Solvent: 7 parts by weight of dimethylformamide Emulsifier: 2 parts by weight of alkylaryl polyglycol ether To produce a suitable preparation of active compound, 1 part by weight of active compound is mixed with the stated amounts of solvent and emulsifier and the concentrate is diluted with emulsifier-containing water to the desired concentration. Cabbages leaves (Brassica oleracea) are treated by being dipped into the active compound preparation of the desired concentration and populated with caterpillars of the diamondback moth (Plutella xylostella) while the leaves are still moist. After the desired period of time, the kill in % is determined. 100% means that all caterpillars have been killed; 0% means that none of the caterpillars have been killed.

[8] = test system: caterpillars of the army worm (Spodoptera exigua); assay: Spodoptera exigua test (leaf dip); assay type: in vivo
Protocol: as §2, with “Spodoptera exigua” for “Plutella”, “Cabbage” for “Cabbages”, “army worm (Spodoptera exigua)” for “diamondback moth (Plutella xylostella)”

[9] = test system: caterpillars of the cotton bollworm (Heliothis armigera); assay: Heliothis armigera test (leaf dip); assay type: in vivo
Protocol: as §2, with “Heliothis armigera” for “Plutella”, “Soya bean” for “Cabbages”, “(Glycine max.)” for “(Brassica oleracea)”, “cotton bollworm (Heliothis armigera)” for “diamondback moth (Plutella xylostella)”

SMILES: O=C(Nc1c(Cl)cc(Cl)cc1C1=NOCCO1)c1cc(Cl)nn1-c1ncccc1Cl [Example I-1-2]
activity in the Phaedon test (in words) [1]: good activity
Kill rate after 7d in % [1]: 100%
logP [2]: 3.07
activity in the Myzus test, spray treatment (in words) [3]: good activity
Kill rate after 5d in % [3]: 80%
activity in the Spodoptera frugiperda test, spray treatment (in words) [4]: good activity
Kill rate after 7d in % [4]: 100%

SMILES: Cc1cccc(C2=NOCCO2)c1NC(=O)c1cc(C(F)(F)F)nn1-c1ncccc1Cl [Example I-1-3]
activity in the Spodoptera frugiperda test, watering (in words) [5]: good activity
Kill rate after 14d in % [5]: 95%
logP [2]: 3.00
activity in the Spodoptera frugiperda test, spray treatment (in words) [4]: good activity
Kill rate after 7d in % [4]: 100%

SMILES: Cc1cccc(C2=NOCCO2)c1NC(=O)c1cc(Br)nn1-c1ncccc1Cl [Example I-1-4]
logP [2]: 2.59
activity in the Spodoptera frugiperda test, spray treatment (in words) [4]: good activity
Kill rate after 7d in % [4]: 100%

SMILES: Cc1cc(Cl)cc(C2=NOCCO2)c1NC(=O)c1cc(C(F)(F)F)nn1-c1ncccc1Cl [Example I-1-6]
activity in the Spodoptera frugiperda test, watering (in words) [5]: good activity
Kill rate after 14d in % [5]: 98%
activity in the Spodoptera exigua test, resistant strain (in words) [6]: good activity
Kill rate after 7d in % [6]: 100%
activity in the Phaedon test (in words) [1]: good activity
Kill rate after 7d in % [1]: 100%
activity in the Plutella test (in words) [7]: good activity
Kill rate after 7d in % ([7]; 20 ppm, 7 d): 100%
logP [2]: 3.50
activity in the Spodoptera exigua test (in words) [8]: good activity
Kill rate after 7d in % ([8]; 100 ppm): 100%
activity in the Spodoptera frugiperda test, spray treatment (in words) [4]: good activity
Kill rate after 7d in % [4]: 100%

SMILES: Cc1cc(Br)cc(C2=NOCCO2)c1NC(=O)c1cc(Cl)nn1-c1ncccc1Cl [Example I-1-10]
activity in the Heliothis armigera test (in words) [9]: good activity
Kill rate after 7d in % ([9]; 20 ppm, 7 d): 100%
activity in the Spodoptera frugiperda test, watering (in words) [5]: good activity
Kill rate after 14d in % [5]: 90%
activity in the Spodoptera exigua test, resistant strain (in words) [6]: good activity
Kill rate after 7d in % [6]: 100%
activity in the Phaedon test (in words) [1]: good activity
Kill rate after 7d in % [1]: 100%
logP [2]: 3.18
activity in the Spodoptera exigua test (in words) [8]: good activity
Kill rate after 7d in % ([8]; 20 ppm): 100%
activity in the Spodoptera frugiperda test, spray treatment (in words) [4]: good activity
Kill rate after 7d in % [4]: 100%

SMILES: Cc1cc(Br)cc(C2=NOCCO2)c1NC(=O)c1cc(Br)nn1-c1ncccc1Cl [Example I-1-12]
activity in the Phaedon test (in words) [1]: good activity
Kill rate after 7d in % [1]: 100%
logP [2]: 3.24
activity in the Spodoptera frugiperda test, spray treatment (in words) [4]: good activity
Kill rate after 7d in % [4]: 100%

SMILES: O=C(Nc1c(Cl)cc(Cl)cc1C1=NOCCO1)c1cc(Br)nn1-c1c(Cl)cccc1Cl [Example I-1-13]
activity in the Phaedon test (in words) [1]: good activity
Kill rate after 7d in % [1]: 100%
logP [2]: 3.98

SMILES: Cc1cc(Cl)cc(C2=NOCCO2)c1NC(=O)c1cc(C(F)(F)F)nn1-c1ncccn1 [Example I-1-14]
logP [2]: 2.79

SMILES: O=C(Nc1c(Cl)cc(Cl)cc1C1=NOCCO1)c1cc(C(F)(F)F)nn1-c1ncccn1 [Example I-1-15]
logP [2]: 2.80

Further lines, with some results ahead:

logP [2]: 3.48
SMILES: O=C(Nc1c(Cl)cc(Cl)cc1C1=NOCCO1)c1cc(Br)cn1-c1ncccc1Cl [Example I-1-21]
activity in the Phaedon test (in words) [1]: good activity
Kill rate after 7d in % [1]: 100%
activity in the Spodoptera frugiperda test, spray treatment (in words) [4]: good activity
Kill rate after 7d in % [4]: 100%

logP [2]: 3.50
SMILES: Cc1cc(Cl)cc(C2=NOCCO2)c1NC(=O)c1cc(Br)cn1-c1ncccc1Cl [Example I-1-25]
activity in the Phaedon test (in words) [1]: good activity
Kill rate after 7d in % [1]: 83%
activity in the Spodoptera frugiperda test, spray treatment (in words) [4]: good activity
Kill rate after 7d in % [4]: 83%

logP [2]: 2.44
SMILES: Cc1cc(I)cc(C2=NOCCN2)c1NC(=O)c1cc(Cl)nn1-c1ncccc1Cl [Example I-1-26]
activity in the Phaedon test (in words) [1]: good activity
Kill rate after 7d in % [1]: 100%
activity in the Myzus test, spray treatment (in words) [3]: good activity
Kill rate after 5d in % [3]: 100%
activity in the Spodoptera frugiperda test, spray treatment (in words) [4]: good activity
Kill rate after 7d in % [4]: 100%

logP [2]: 1.89
SMILES: O=C(Nc1c(Cl)cccc1C1=NOCCN1)c1cc(Br)nn1-c1ncccc1Cl [Example I-1-27]

logP [2]: 1.83
SMILES: Cc1cccc(C2=NOCCN2)c1NC(=O)c1cc(Br)cn1-c1ncccc1Cl [Example I-1-28]
activity in the Phaedon test (in words) [1]: good activity
Kill rate after 7d in % [1]: 100%
activity in the Spodoptera frugiperda test, spray treatment (in words) [4]: good activity
Kill rate after 7d in % [4]: 100%

logP [2]: 2.80
SMILES: Cc1cc(Br)cc(C2=NOCCN2)c1NC(=O)c1cc(C(F)(F)F)nn1-c1ncccc1Cl [Example I-1-29]
activity in the Phaedon test (in words) [1]: good activity
Kill rate after 7d in % [1]: 100%
activity in the Myzus test, spray treatment (in words) [3]: good activity
Kill rate after 5d in % [3]: 100%
activity in the Spodoptera frugiperda test, spray treatment (in words) [4]: good activity
Kill rate after 7d in % [4]: 100%

logP [2]: 2.35
SMILES: Cc1cc(Br)cc(C2=NOCCN2)c1NC(=O)c1cc(Cl)nn1-c1ncccc1Cl [Example I-1-30]
activity in the Phaedon test (in words) [1]: good activity
Kill rate after 7d in % [1]: 100%
activity in the Myzus test, spray treatment (in words) [3]: good activity
Kill rate after 5d in % [3]: 100%
activity in the Spodoptera frugiperda test, spray treatment (in words) [4]: good activity
Kill rate after 7d in % [4]: 100%
